According to US20260085073A1, “PYRAZOLYLCARBOXAMIDE COMPOUNDS AND THEIR USE IN THERAPY” (Hotspot Therapeutics, Inc., priority 2022, published 2026):

Molecular target: T1, MALT1 (Homo sapiens, UniProt Q9UDY8)
T1 construct: Avi-tagged FL MALT-1 (Pharmaron, stored at −70° C.); Avi-tag
T1 sequence (Q9UDY8 1-824): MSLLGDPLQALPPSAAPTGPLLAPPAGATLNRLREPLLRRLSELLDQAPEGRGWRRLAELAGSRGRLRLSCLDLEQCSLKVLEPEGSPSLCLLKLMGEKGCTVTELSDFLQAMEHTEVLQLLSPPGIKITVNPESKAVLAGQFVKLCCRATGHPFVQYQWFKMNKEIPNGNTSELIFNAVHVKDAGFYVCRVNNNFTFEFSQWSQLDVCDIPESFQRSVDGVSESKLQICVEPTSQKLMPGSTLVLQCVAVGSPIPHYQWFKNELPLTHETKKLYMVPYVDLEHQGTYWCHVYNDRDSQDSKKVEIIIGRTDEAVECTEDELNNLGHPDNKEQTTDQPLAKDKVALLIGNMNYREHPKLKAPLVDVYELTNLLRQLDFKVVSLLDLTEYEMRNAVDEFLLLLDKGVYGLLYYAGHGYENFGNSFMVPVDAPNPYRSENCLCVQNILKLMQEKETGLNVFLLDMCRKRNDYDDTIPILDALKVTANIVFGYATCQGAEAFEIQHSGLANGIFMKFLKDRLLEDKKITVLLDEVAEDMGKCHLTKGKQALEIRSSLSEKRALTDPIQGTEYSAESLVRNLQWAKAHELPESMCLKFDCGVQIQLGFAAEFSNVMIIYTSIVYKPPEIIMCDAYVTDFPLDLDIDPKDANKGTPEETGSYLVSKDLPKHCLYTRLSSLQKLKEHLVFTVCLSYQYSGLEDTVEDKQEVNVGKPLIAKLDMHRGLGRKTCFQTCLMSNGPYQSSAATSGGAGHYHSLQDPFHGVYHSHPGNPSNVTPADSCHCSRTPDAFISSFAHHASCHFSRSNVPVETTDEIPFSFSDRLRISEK
Assay: MALT1 inhibition assay (MALT-1 Fluorogenic Peptide Cleavage Assay, Ac-LRSR-AMC substrate)
Format: biochemical
Details: Avi-tagged FL MALT-1, 30 min pre-incubation, 90 min reaction at room temperature, fluorescence intensity
In short: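 Full-length Avi-tagged MALT1 pre-incubated 30 min at room temperature with compounds (2% DMSO final) in HEPES pH 6.89, sodium citrate, TCEP, EDTA, CHAPS buffer. Ac-LRSR-AMC added from 50 µM (Km) or […] working stocks; 90 min at room temperature, AMC fluorescence (ex 342/em 441 nm); IC50 from % inhibition curves.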

| SMILES | IC50 |
| --- | --- |
| Cn1nc(-c2ccc(F)c3ncsc23)c(C(F)(F)F)c1C(=O)Nc1ccnc(C(F)(F)F)c1 [Compound I-234] | > 10 µM |
| Cn1nc(-c2cccc3ncsc23)c(C(F)(F)F)c1C(=O)Nc1ccc(C(=O)N2CC(O)C2)c(Cl)c1 [Compound I-235] | 0.5 to 2.5 µM |
| Cn1nc(-c2cccc3cnoc23)c(C(F)(F)F)c1C(=O)Nc1ccnc(C(F)(F)F)c1 [Compound I-236] | 2.5 to 10 µM |
| Cn1nc(-c2nccc3ccsc23)c(C(F)(F)F)c1C(=O)Nc1ccnc(C(F)(F)F)c1 [Compound I-237] | 0.5 to 2.5 µM |
| Cc1ccc(-c2nn(C)c(C(=O)Nc3ccnc(C(F)(F)F)c3)c2C(F)(F)F)n2ccnc12 [Compound I-238] | 2.5 to 10 µM |
| Cn1nc(-c2n[nH]c3ccncc23)c(C(F)(F)F)c1C(=O)Nc1ccnc(C(F)(F)F)c1 [Compound I-239] | > 10 µM |
| Cn1nc(-c2cccc3ncccc23)c(C(F)(F)F)c1C(=O)Nc1ccc(C(=O)N2CC(O)C2)c(Cl)c1 [Compound I-240] | 2.5 to 10 µM |
| Cn1nc(-c2cccc3nccn23)c(C(F)(F)F)c1C(=O)Nc1ccc(C(=O)N2CC(O)C2)c(Cl)c1 [Compound I-241, N-(3-Chloro-4-(3-hydroxyazetidine-1-carbonyl)phenyl)-3-(imidazo[1,2-a]pyridin-5-yl)-1-methyl-4-(trifluoromethyl)-1H-pyrazole-5-carboxamide] | 2.5 to 10 µM |
| Cn1nc(-c2n[nH]c3ncccc23)c(C(F)(F)F)c1C(=O)Nc1ccnc(C(F)(F)F)c1 [Compound I-242] | 2.5 to 10 µM |
| Cn1nc(-c2cccc3[nH]c(=O)sc23)c(C(F)(F)F)c1C(=O)Nc1ccnc(C(F)(F)F)c1 [Compound I-243] | 0.5 to 2.5 µM |
| Cn1nc(-c2nsc3ccccc23)c(C(F)(F)F)c1C(=O)Nc1ccnc(C(F)(F)F)c1 [Compound I-244] | 0.5 to 2.5 µM |
| Cn1nc(-c2cc(Cl)cc3nccn23)c(C(F)(F)F)c1C(=O)Nc1ccnc(C(F)(F)F)c1 [Compound I-245] | 0.5 to 2.5 µM |
| Cn1nc(-c2cccc3oncc23)c(C(F)(F)F)c1C(=O)Nc1ccnc(C(F)(F)F)c1 [Compound I-246] | 2.5 to 10 µM |
| Cn1nc(-c2ccnc3nccn23)c(C(F)(F)F)c1C(=O)Nc1ccnc(C(F)(F)F)c1 [Compound I-247] | 0.5 to 2.5 µM |
| Cn1nc(-c2ccc(Cl)c3nccn23)c(C(F)(F)F)c1C(=O)Nc1ccnc(C(F)(F)F)c1 [Compound I-248] | > 10 µM |
| Cn1nc(-c2cccc3[nH]c(=O)ccc23)c(C(F)(F)F)c1C(=O)Nc1ccnc(C(F)(F)F)c1 [Compound I-249] | 2.5 to 10 µM |
| Cn1nc(-c2cccc3ncc(F)cc23)c(C(F)(F)F)c1C(=O)Nc1ccnc(C(F)(F)F)c1 [Compound I-250] | 0.5 to 2.5 µM |
| Cn1nc(-c2c(F)ccc3nc(N)sc23)c(C(F)(F)F)c1C(=O)Nc1ccnc(C(F)(F)F)c1 [Compound I-251] | 0.5 to 2.5 µM |
| Cn1nc2c(c1C(=O)Nc1ccnc(C(F)(F)F)c1)CCCc1ccccc1-2 [Compound I-252] | 2.5 to 10 µM |
| Cn1nc(C(=O)Nc2ccnc(C(F)(F)F)c2)c2c1-c1ccccc1CCC2 [Compound I-253] | > 10 µM |
| Cn1nc2c(c1C(=O)Nc1cnc(-n3nccn3)c(Cl)c1)CCCc1ccccc1-2 [Compound I-254] | 0.5 to 2.5 µM |
| Cn1nc(C(=O)Nc2cnc(-n3nccn3)c(Cl)c2)c2c1-c1ccccc1CCC2 [Compound I-255] | > 10 µM |

| SMILES | IC50 |
| --- | --- |
| Cn1nc2c(c1C(=O)Nc1cnc(-n3nccn3)c(Cl)c1)CCOc1ccccc1-2 [Compound I-256] | > 10 µM |
| Cn1nc2c(c1C(=O)Nc1ccnc(C(F)(F)F)c1)CCc1ccccc1-2 [Compound I-258] | 2.5 to 10 µM |
| Cn1nc2c(c1C(=O)Nc1cnc(-n3nccn3)c(Cl)c1)CCc1ccccc1-2 [Compound I-259] | > 10 µM |
| Cn1nc(C(=O)Nc2ccnc(C(F)(F)F)c2)c2c1-c1ccccc1CC2 [Compound I-260] | 0.5 to 2.5 µM |
| Cn1nc(-c2c(F)ccc3ncsc23)c(C(F)(F)F)c1C(=O)Nc1ccnc(C(F)(F)F)c1 [Compound I-280] | < 0.5 µM |
| CNc1nc2cccc(-c3nn(C)c(C(=O)Nc4ccnc(C(F)(F)F)c4)c3C(F)(F)F)c2s1 [Compound I-281] | 2.5 to 10 µM |
| Cn1nc(-c2cccc3ncsc23)c(C(F)(F)F)c1C(=O)Nc1ccnc(C2CC2)c1 [Compound I-282] | > 10 µM |
| Cc1cn2c(-c3nn(C)c(C(=O)Nc4ccnc(C5CC5)c4)c3C(F)(F)F)cccc2n1 [Compound I-283] | > 10 µM |
| Cn1nc(-c2cccc3nscc23)c(C(F)(F)F)c1C(=O)Nc1cnc(-n2nccn2)c(Cl)c1 [Compound I-285] | < 0.5 µM |
| Cn1nc(-c2cccc3ncsc23)c(C(F)(F)F)c1C(=O)Nc1cnc(-n2nccn2)c(C(F)F)c1 [Compound I-286] | < 0.5 µM |
| COc1cc(NC(=O)c2c(C(F)(F)F)c(-c3ccccc3)nn2C)ccn1 [Compound I-287] | > 10 µM |
| Cc1cc(NC(=O)c2c(C(F)(F)F)c(-c3ccccc3)nn2C)cc(C)n1 [Compound I-288] | 2.5 to 10 µM |
| Cn1nc(-c2ccc(F)c3nccn23)c(C(F)(F)F)c1C(=O)Nc1ccnc(C(F)(F)F)c1 [Compound I-291] | 0.5 to 2.5 µM |
| CN(C)c1nc2cccc(-c3nn(C)c(C(=O)Nc4ccnc(C(F)(F)F)c4)c3C(F)(F)F)c2s1 [Compound I-292] | > 10 µM |
| COc1nc2cccc(-c3nn(C)c(C(=O)Nc4ccnc(C(F)(F)F)c4)c3C(F)(F)F)c2s1 [Compound I-293] | > 10 µM |
| COc1nc2cccc(-c3nn(C)c(C(=O)Nc4cnc(-n5nccn5)c(Cl)c4)c3C(F)(F)F)c2s1 [Compound I-294] | < 0.5 µM |
| Cn1nc(-c2cncc3ncccc23)c(C(F)(F)F)c1C(=O)Nc1ccnc(C(F)(F)F)c1 [Compound I-295] | 2.5 to 10 µM |
| Cn1nc(-c2c(F)ccc3nccn23)c(C(F)(F)F)c1C(=O)Nc1ccnc(C(F)(F)F)c1 [Compound I-296] | 0.5 to 2.5 µM |
| Cc1nc2cccc(-c3nn(C)c(C(=O)Nc4cnc(-n5nccn5)c(Cl)c4)c3C(F)(F)F)c2s1 [Compound I-297] | < 0.5 µM |
| Cc1nc2cccc(-c3nn(C)c(C(=O)Nc4ccnc(C5CC5)c4)c3C(F)(F)F)c2s1 [Compound I-298] | > 10 µM |
| Cn1nc(-c2cccc3nc(N)sc23)c(C(F)(F)F)c1C(=O)Nc1cnc(-n2nccn2)c(Cl)c1 [Compound I-299, 3-(2-aminobenzo[d]thiazol-7-yl)-N-(5-chloro-6-(2H-1,2,3-triazol-2-yl)pyridin-3-yl)-1-methyl-4-(trifluoromethyl)-1H-pyrazole-5-carboxamide] | < 0.5 µM |
